Source: publication PMC9500072, “Topical application of an irreversible small molecule inhibitor of lysyl oxidases ameliorates skin scarring and fibrosis” (Nature Communications, 2022)

Assays:
Potassium Channel [KATP] = Potassium Channel [KATP] (Cricetus cricetus, UniProt Q09427); assay: Eurofins panel 265600; format: binding, ham
From the text: PXS-4787 competes with a model substrate (putrescine) for the LOX binding site (Fig. 2d). The allylamine of PXS-4787 interacts with the co-factor of the enzyme and elicits mechanism-based inhibition (Fig. 2e). Through careful optimization, and in contrast to BAPN, PXS-4787 selectivity targets lysyl oxidases and is neither an inhibitor of, nor a substrate for, related oxidases (Fig. 2f, g and Supplementary Table S1). Furthermore, PXS-4787 was clean when profiled in a broad panel of macromolecular targets using enzyme and radioligand binding assays (LeadProfilingScreen, Eurofins CEREP Panlabs, 68 assays, test concentration 10 µM; Supplementary Data S1).

Bovine (aorta) LOX = molecular target: T1, Bovine (aorta) LOX (Bos taurus, UniProt P33072); assay: Amplex Red oxidation assay, LOX inhibition; format: biochemical
T1 construct: Bovine (aorta) LOX used for analog screening due to ready availability; from tissue; host or cells: bovine aorta
T1 sequence (P33072 170-418): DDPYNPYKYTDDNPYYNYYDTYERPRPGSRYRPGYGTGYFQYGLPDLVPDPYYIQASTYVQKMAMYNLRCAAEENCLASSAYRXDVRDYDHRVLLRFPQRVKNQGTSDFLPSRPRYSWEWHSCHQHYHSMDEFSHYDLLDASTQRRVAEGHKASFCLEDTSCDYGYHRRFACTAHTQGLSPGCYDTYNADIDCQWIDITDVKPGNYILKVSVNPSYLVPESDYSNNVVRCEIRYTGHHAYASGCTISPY
Description: The measurement of the enzymatic activity of all lysyl oxidase family members was based on the detection of hydrogen peroxide with an Amplex-Red oxidation assay, as previously described; miniaturized in 384 well formats, with the appropriate combination of substrate and assay buffer for each individual enzyme. After a 30 min pre-incubation of the enzyme at 37 °C with the test compound (or with different incubation times for the time-dependency assay), one volume of reaction mixture containing 120 μM Amplex Red (AR) (Life Technologies), 1.5 U/mL horseradish peroxidase (HRP) (Sigma-Aldrich) and the specific substrate was added to each sample. The relative fluorescence units (RFU) were then measured every 2.5 min for 30 min at 37 °C, excitation 565 nm and emission 590, on a BMG Clariostar Microplate Reader. All the substrates were used at concentrations corresponding to their Km towards the corresponding enzyme, or with a range of different concentrations for the substrate competition experiments.
Lysyl oxidases assay buffer contained 1.2 M urea, 50 mM sodium borate buffer, pH 8.2 and 100 µM β-aminoproprionitrile (BAPN, Sigma-Aldrich) was used for low control.

Melatonin MT1 = Melatonin MT1 (Homo sapiens, UniProt P48039); assay: Eurofins panel 251600; format: binding
Chain of Melatonin MT1 (P48039 whole entry): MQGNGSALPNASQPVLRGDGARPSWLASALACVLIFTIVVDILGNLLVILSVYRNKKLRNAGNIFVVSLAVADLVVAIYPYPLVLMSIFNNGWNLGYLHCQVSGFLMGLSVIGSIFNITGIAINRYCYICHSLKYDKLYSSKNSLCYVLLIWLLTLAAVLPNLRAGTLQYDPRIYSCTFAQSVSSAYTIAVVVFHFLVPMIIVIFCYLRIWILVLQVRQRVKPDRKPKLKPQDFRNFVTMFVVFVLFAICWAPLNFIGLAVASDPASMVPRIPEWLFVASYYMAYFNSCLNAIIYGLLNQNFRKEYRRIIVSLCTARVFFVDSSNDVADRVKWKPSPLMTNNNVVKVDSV

[1] = LeadProfilingScreen, Eurofins CEREP Panlabs, 68 assays; format: binding; details: test concentration 10 µM
primary scar fibroblasts = assay: Scar-in-a-jar collagen I immunofluorescence (deposition, coherency); format: cell-based, human
Description: Fibrillar collagen I deposition was measured using confocal image analysis (Fig. 4f–k). […] Furthermore, coherency analysis[18] was used to determine collagen alignment. This analysis specifically analyses the alignment of collagen fibers, with more alignment increasing the score and more random distribution provided a lower score. In scar tissue scores are higher as fibers are densely parallel aligned in contrast to normal skin[18].
An experimental ‘Scar-in-a-jar’ protocol developed by Chen and Raghunath[36] was followed for quantitation of collagen per cell and to measure the orientation of collagen under fibrotic conditions in vitro. […] The images then further analyzed for collagen coherency measurements using ‘Fiji is just image j’s’ (FIJI) orientation J application as previously reported[18],[37]. For quantitation of collagen per cell, an image of whole chamber slide was captured using fluorescence microscope (Nikon inverted microscope). The 488 nm green and Hoechst stained blue images were collected, and analyzed using NIS-Elements software (Nikon, Japan). The six ROIs were selected from each image and the binary thresholds were recorded for each corresponding image. […]

[2] = molecular target: Serotonin (5-Hydroxytryptamine) 5-HT2A (Homo sapiens, UniProt P28223); assay: Eurofins panel 271650; format: binding
Chain of Serotonin (5-Hydroxytryptamine) 5-HT2A (P28223 whole entry): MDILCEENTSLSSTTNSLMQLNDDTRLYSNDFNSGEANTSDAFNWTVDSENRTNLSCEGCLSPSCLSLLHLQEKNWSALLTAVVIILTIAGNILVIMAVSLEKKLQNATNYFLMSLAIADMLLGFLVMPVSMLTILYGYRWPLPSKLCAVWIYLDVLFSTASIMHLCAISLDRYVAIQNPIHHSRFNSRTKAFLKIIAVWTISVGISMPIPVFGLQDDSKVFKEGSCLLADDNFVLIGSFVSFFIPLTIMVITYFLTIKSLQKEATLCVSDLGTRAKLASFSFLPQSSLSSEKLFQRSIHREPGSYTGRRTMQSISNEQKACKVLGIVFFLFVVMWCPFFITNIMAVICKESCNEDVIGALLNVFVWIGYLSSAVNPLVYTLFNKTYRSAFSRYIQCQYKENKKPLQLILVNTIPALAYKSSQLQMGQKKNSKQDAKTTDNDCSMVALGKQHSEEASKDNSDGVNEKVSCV

hERG potassium channel = hERG potassium channel (Homo sapiens, UniProt Q12809); assay: Eurofins panel 265910; format: binding; details: probe [3H]Dofetilide
Chain of hERG potassium channel (Q12809 whole entry): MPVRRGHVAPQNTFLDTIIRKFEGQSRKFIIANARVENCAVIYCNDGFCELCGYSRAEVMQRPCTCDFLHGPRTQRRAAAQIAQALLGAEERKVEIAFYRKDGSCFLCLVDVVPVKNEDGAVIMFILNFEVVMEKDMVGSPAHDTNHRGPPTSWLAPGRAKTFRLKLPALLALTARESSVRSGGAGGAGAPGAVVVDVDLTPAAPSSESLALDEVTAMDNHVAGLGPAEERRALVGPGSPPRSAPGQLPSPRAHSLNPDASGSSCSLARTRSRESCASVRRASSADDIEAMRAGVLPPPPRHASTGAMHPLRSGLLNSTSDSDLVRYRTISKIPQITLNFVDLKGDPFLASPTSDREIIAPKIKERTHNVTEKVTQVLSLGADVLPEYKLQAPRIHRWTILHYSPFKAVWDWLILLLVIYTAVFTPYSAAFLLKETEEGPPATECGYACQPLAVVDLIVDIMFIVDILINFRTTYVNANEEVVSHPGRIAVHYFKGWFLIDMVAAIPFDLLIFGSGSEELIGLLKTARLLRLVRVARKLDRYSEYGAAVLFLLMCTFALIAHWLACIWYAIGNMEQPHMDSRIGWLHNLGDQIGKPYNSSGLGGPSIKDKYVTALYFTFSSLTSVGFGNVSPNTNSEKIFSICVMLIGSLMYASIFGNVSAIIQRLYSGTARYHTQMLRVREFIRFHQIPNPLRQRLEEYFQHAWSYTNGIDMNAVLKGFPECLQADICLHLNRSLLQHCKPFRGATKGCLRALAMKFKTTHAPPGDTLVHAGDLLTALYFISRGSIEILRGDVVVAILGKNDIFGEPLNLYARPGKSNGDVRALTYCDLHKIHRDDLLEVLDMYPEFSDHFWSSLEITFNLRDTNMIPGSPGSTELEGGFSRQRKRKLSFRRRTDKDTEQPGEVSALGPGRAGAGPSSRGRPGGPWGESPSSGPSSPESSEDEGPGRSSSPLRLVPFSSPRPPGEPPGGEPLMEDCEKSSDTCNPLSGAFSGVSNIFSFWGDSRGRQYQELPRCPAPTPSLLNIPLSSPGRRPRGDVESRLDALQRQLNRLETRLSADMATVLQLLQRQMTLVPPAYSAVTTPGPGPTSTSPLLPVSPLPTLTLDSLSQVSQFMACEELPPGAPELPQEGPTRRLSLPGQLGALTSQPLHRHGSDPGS

Chain of Potassium Channel [KATP] (Q09427 whole entry): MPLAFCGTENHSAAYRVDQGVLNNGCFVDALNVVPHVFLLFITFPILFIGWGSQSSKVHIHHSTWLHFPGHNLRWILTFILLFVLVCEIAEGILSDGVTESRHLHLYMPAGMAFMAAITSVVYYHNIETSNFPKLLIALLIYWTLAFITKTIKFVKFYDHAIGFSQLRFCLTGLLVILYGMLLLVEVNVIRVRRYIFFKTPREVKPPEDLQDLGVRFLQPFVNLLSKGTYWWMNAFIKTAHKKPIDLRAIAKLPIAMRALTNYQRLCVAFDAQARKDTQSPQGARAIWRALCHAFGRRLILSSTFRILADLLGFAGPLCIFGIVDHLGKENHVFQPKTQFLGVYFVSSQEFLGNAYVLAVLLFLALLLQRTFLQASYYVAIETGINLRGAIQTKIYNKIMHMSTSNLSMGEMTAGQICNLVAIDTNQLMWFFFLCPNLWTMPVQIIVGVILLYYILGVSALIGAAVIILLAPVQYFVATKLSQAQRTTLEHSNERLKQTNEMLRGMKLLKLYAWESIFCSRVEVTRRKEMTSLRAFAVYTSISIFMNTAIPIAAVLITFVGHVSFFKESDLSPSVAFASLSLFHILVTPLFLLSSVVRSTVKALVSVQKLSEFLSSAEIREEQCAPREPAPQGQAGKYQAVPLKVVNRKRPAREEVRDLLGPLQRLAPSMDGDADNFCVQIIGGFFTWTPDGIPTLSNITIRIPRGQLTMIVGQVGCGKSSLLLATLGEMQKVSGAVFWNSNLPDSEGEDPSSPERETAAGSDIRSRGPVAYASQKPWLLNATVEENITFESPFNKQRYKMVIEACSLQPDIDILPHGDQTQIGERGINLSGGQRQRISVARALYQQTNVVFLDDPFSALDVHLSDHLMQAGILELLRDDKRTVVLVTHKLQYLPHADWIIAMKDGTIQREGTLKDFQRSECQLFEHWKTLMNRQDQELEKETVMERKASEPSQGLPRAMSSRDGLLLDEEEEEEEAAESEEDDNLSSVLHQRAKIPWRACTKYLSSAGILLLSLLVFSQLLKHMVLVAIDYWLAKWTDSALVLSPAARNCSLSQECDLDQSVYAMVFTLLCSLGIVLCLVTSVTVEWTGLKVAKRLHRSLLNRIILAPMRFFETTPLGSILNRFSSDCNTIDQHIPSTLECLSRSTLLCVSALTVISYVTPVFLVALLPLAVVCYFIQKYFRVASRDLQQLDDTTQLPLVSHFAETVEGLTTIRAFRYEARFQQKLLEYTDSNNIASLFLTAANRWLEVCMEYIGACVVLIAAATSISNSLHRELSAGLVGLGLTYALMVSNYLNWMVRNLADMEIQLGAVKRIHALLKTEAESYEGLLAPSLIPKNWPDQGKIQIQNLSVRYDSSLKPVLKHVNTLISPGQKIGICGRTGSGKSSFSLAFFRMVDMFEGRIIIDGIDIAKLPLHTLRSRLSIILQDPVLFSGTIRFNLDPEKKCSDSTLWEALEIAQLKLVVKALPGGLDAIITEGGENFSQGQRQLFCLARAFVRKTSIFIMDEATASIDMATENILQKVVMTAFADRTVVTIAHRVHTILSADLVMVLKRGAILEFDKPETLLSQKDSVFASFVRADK

SMILES | inhibition at 10 µM (Potassium Channel [KATP]) [%] | IC50 (Bovine (aorta) LOX; 30 min pre-incubation) [µM] | inhibition at 30 µM (Bovine (aorta) LOX; log conc -4.5229, read-out: Fig 2A inhibition (mean)) [%] | inhibition at 10 µM (Bovine (aorta) LOX; log conc -5, read-out: Fig 2A inhibition (mean)) [%] | inhibition at 3.333 µM (Bovine (aorta) LOX; log conc -5.4771, read-out: Fig 2A inhibition (mean)) [%] | inhibition at 1.111 µM (Bovine (aorta) LOX; log conc -5.9542, read-out: Fig 2A inhibition (mean)) [%] | inhibition at 0.3704 µM (Bovine (aorta) LOX; log conc -6.4313, read-out: Fig 2A inhibition (mean)) [%] | inhibition at 0.1235 µM (Bovine (aorta) LOX; log conc -6.9083, read-out: Fig 2A inhibition (mean)) [%] | inhibition at 0.0412 µM (Bovine (aorta) LOX; log conc -7.3851, read-out: Fig 2A inhibition (mean)) [%] | inhibition at 0.0137 µM (Bovine (aorta) LOX; log conc -7.8633, read-out: Fig 2A inhibition (mean)) [%] | inhibition at 0.0046 µM (Bovine (aorta) LOX; log conc -8.3372, read-out: Fig 2A inhibition (mean)) [%] | inhibition at […] (Bovine (aorta) LOX; log conc -8.8239, read-out: Fig 2A inhibition (mean)) [%] | inhibition at 0.0005 µM (Bovine (aorta) LOX; log conc -9.301, read-out: Fig 2A inhibition (mean)) [%] | inhibition at 10 µM (Melatonin MT1) [%] | profile in broad panel of macromolecular targets [1] | deposited fibrillar collagen I (primary scar fibroblasts; 10 µM vs control and 1 µM) | collagen I coherency (primary scar fibroblasts; 1 and 10 µM vs control) | inhibition at 30 µM [2] [%] | inhibition at 30 µM (hERG potassium channel) [%]
NC/C=C(\F)CS(=O)(=O)c1ccccc1 [PXS-4787] | 0 | 2 | 99.2 | 92.3 | 65.8 | 35 | 14.2 | 4.31 | 1.21 | -0.629 | -1.3 | -1.09 | -1.47 | -2 | clean | significantly reduced | significantly reduced coherency |  | 
NC/C=C(\F)C(F)(F)S(=O)(=O)c1ccccc1 [PXS-6302] |  |  |  |  |  |  |  |  |  |  |  |  |  |  |  |  |  | 25 | 29
